# Assay: Stability assay: storage of buffered water solutions, residual activity measured in the thrombocyte aggregation assay
# Type: physicochemical
# Conditions: room temperature, water solution buffered at pH 7
# Description: The stability of some compounds according to the present invention has been compared with that of a natural prostaglandine through storage at room temperature of water solutions buffered at pH 7, by measuring the residual activity in the assay of thrombocyte aggregation at different times; the results, listed in Table III, show a much greater stability: […]
residual activity in the assay of thrombocyte aggregation (7 gg),residual activity in the assay of thrombocyte aggregation (1h),residual activity in the assay of thrombocyte aggregation (12h),residual activity in the assay of thrombocyte aggregation (24h),SMILES
7 gg: 15,1h: 100,12h: 92,24h: 80,"CCCCC(=O)NCC(=O)N1CCC[C@H]1C(=O)OCCCCC(=O)O [III (X₂R₄=CH₂, R₂=R₆=CO, R=H, n=4, m=3), L-7,13,16-trioxo-12,15-diaza-6-oxa-prostanoic]"
7 gg: 4,1h: 98,12h: 78,24h: 62,"CCCCCNC(=O)CN1CCC[C@H]1C(=O)OCCCCC(=O)O [III (X₂=R₂=R₆=CH₂, R₄=CO, R=H, n=4, m=3), L-7-14-dioxo-12,15-diaza-6-oxa-prostanoic acid]"
7 gg: 0,1h: 30,12h: 2,24h: 0,"CCCCC[C@H](O)/C=C/[C@H]1[C@H](O)CC(=O)[C@@H]1CCCCCCC(=O)O [PGE₁, Alprostadil, reference compound]"

# From patent EP0572365A2, “Heteroprostanoids, process for their production and therapeutical use thereof” (NUOVO CONSORZIO SANITARIO NAZIONALE del Dott. Paolo Malizia …, priority 1992, dated 1993)
